The results in this text go back to patent US20100209496A1, “LIQUID AND SEMI-SOLID PHARMACEUTICAL FORMULATIONS FOR ORAL ADMINISTRATION OF A SUBSTITUTED AMIDE” (priority 2006, published 2010).

Series [1] in a line: Bioavailability when dosed as a crystalline solid (dogs). It counts as in vivo.
Series [2] can be described thus: Bioavailability (drug plasma levels) from liquid-filled capsule dosage form. It counts as in vivo. As to conditions: compound in solution in liquid and semi-solid excipients, versus crystalline solid.
The nature of series [3]: Bioavailability when dosed as a crystalline solid (rats). It counts as in vivo.
Series [4] is described as follows: Compound I Form I solubility in various liquid vehicles. The format is physicochemical. As to conditions: aqueous.

A word on the aqueous solubility: it is the concentration that dissolves in the medium under given conditions.

For the substance “3-[(3aR,4R,5S,7aS)-5-{(1R)-1-[3,5-bis(Trifluoromethyl)phenyl]ethoxy}-4-(4-fluorophenyl)-octahydro-2H-isoindol-2-yl]cyclopent-2-en-1-one [Compound I]”, the bioavailability entry was “poorly bioavailable” in series [1], “increased dramatically” in series [2] and “poorly bioavailable” in series [3]. Also, the aqueous solubility in series [4] is less than 0.2 µg/mL.
